The structures appear in SMILES notation.

In this experiment the test system is thin-cap fibroatheroma (TCFA). The experiment in a line: drug-eluting stent implants in hypercholesterolemic rabbit model of human thin-cap fibroatheroma. It is filed as in vivo. Conditions: 28 days; compared to unstented (de novo) TCFAs. How it is done:
The MULTI-LINK Penta™ 13 mm was the platform for all DES and metallic stents. Both a slow release and fast release formulation of each drug were tested and the results were evaluated at 28 days. In both FIGS. 4 and 5, the test results concerning the slow release formulation were labeled with “s”, the test results concerning the fast release formulation were labeled with “f”, and the test results data concerning a formulation having both a slow and a fast release of an agent are labeled with “s+f.”

For the compound `C[C@]12CC[C@@H]3c4ccc(O)cc4CC[C@H]3[C@@H]1CC[C@@H]2O` [beta-estradiol, 17-beta-estradiol], the percent lipid area result was “reduce” and the “total fibrous cap thickness” value is given as “increase”.
On the same counts, the results for `CO[C@H]1C[C@@H]2CC[C@@H](C)[C@@](O)(O2)C(=O)C(=O)N2CCCC[C@H]2C(=O)O[C@H]([C@H](C)C[C@@H]2CC[C@@H](OCCO)[C@H](OC)C2)CC(=O)[C@H](C)/C=C(\C)[C@@H](O)[C@@H](OC)C(=O)[C@H](C)C[C@H](C)/C=C/C=C/C=C/1C` [everolimus, 40-O-(2-hydroxy)ethyl-rapamycin] are “reduce” and “increase”.

The record behind these values is patent publication US8017140B2, “Drug-delivery stent formulations for restenosis and vulnerable plaque” (Advanced Cardiovascular System, Inc., priority 2004, dated 2011).
